Reference: patent USRE38257E1, “Piperdine derivatives and hypotensives containing the same” (Ajinomoto Co., Inc., priority 1988, dated 2003)

Test system: male spontaneously hypertensive rats
Assay: Decrease in systolic blood pressure in spontaneously hypertensive rats after intravenous bolus injection, indirect (tail-cuff) method
Assay type: in vivo, rat
Conditions: for Decrease in systolic blood pressure (mmHg) time after administration (hour) 0.5: 0.5 hour after administration; for Decrease in systolic blood pressure (mmHg) time after administration (hour) 4: 4 hours after administration
Description: As test animals, four male spontaneously hypertensive rats (weight 400 to 440 g) that were sufficiently adapted for feeding and in which hypertension was confirmed were used.
Physiological saline aqueous solution containing 2.5% Nicolle and 2.5% ethanol of sample was intravenously administered by bolus injection at a dose of 1 ml per 1 kg of body weight. Systolic blood pressure after administration was measured by the indirect (tail-cuff) method.

Molecule | Decrease in systolic blood pressure (mmHg) time after administration (hour) 0.5 (dose 3 mg/kg i.v. bolus) | Decrease in systolic blood pressure (mmHg) time after administration (hour) 4 (dose 3 mg/kg i.v. bolus) | Decrease in systolic blood pressure (mmHg) time after administration (hour) 0.5 (dose 10 mg/kg i.v. bolus) | Decrease in systolic blood pressure (mmHg) time after administration (hour) 4 (dose 10 mg/kg i.v. bolus)
COc1cc2c(cc1OC)CC(CCN1CCC(=C3c4ccccc4C=Cc4ccccc43)CC1)C2.Cl [Example 240] | −118 mmHg | −5 mmHg | – | –
Cl.Nc1cccc2c1CC(CN1CCC(=C3c4ccccc4C=Cc4ccccc43)CC1)C2 (stereo not drawn) [Example 330, 4′-Amino-2-(4-(5H-Dibenzo[a,d]cyclohepten-5-ylidene)-1-piperidinyl)methylindan hydrochloride] | – | – | −93 mmHg | −25 mmHg
Cl.O=[N+]([O-])c1ccccc1CCCCN1CCC(=C2c3ccccc3C=Cc3ccccc32)CC1 [Example 255, 4-(4-(5H-Dibenzo[a,d]cyclohepten-5-ylidene)-1-piperidinyl)-1-(2-nitrophenyl)butane hydrochloride] | – | – | −62 mmHg | 2 mmHg
5-(4-(5H-Dibenzo[a,d]cyclohepten-5-ylidene)-1-piperidine hydrochloride [Example 116] | – | – | −36 mmHg | −12 mmHg
CC(=O)Nc1ccc2c(c1)CC(CN1CCC(=C3c4ccccc4C=Cc4ccccc43)CC1)C2.Cl (stereo not drawn) [Example 334, 5′-acetylamino-2-(4-(5H-Dibenzo[a,d]cyclohepten-5-ylidene)-1-piperidinyl)methylindan hydrochloride] | −130 mmHg | −93 mmHg | – | –
COc1ccc(C(=O)NCCN2CCCCC2=C2c3ccccc3C=Cc3ccccc32)c(OC)c1.Cl [Example 292, N-(2-(5H-Dibenzo[a,d]cyclohepten-5-ylidene)-1-piperidinyl)ethyl-2,4-dimethoxybenzamide hydrochloride] | −31 mmHg | 3 mmHg | – | –
CC(=O)N1CCC(C=CCCCN2CCC(=C3c4ccccc4C=Cc4ccccc43)CC2)CC1.Cl.Cl [Example 321, 1-(N-Acetyl-4-piperidinyl)-5-(4-(5H-dibenzo[a,d]cyclohepten-5-ylidene)-1-piperidinyl)-1-pentene dihydrochloride] | – | – | −60 mmHg | −4 mmHg
CCC(C#N)(CCCN1CCC(=C2c3ccccc3C=Cc3ccccc32)CC1)c1cccc(C(F)(F)F)c1.Cl (stereo not drawn) [Example 149, 5-(4-(5H-Dibenzo[a,d]cyclohepten-5-ylidene)-1-piperidinyl)-2-ethyl-2-(3-trifluoromethylphenyl)valeronitrile hydrochloride] | – | – | −116 mmHg | −32 mmHg
CCCCCCCCCC(=O)N1CCC(=C2c3ccccc3C=Cc3ccccc32)CC1 [Example 164, 1-Decanolyl-4-(5H-dibenzo[a,d]cyclohepten-5-ylidene)piperidine] | – | – | −91 mmHg | −22 mmHg
C=CCC(CCN1CCC(=C2c3ccccc3C=Cc3ccccc32)CC1)C(=O)c1ccc(OC)c(OC)c1.Cl (stereo not drawn) [Example 276, 2-Allyl-4-(4-(5H-dibenzo[a,d]cyclohepten-5-ylidene)-1-piperidinyl)-3′,4′dimethoxybutyrophenone hydrochloride] | – | – | −24 mmHg | −1 mmHg
CC(=O)NC1CCC(CCCCN2CCC(=C3c4ccccc4C=Cc4ccccc43)CC2)CC1.Cl (stereo not drawn) [Example 260, 1-(4-acetylamino-1-cyclohexyl)-4-(4-(5H-dibenzo[a,d]cyclohepten-5-ylidene)-1-piperidinyl)butane hydrochloride] | – | – | −51 mmHg | −10 mmHg
COc1cc(C=CCN2CCC(=C3c4ccccc4C=Cc4ccccc43)CC2)cc(OC)c1OC.Cl [Example 320, 4-(5H-Dibenzo[a,d]cyclohepten-5-ylidene)-1-(3,4,5-trimethoxycinnamyl)piperdine hydrochloride] | – | – | −147 mmHg | −113 mmHg
4-(4-(5H-Dibenzo[a,d]cyclohepten-5-ylidene)-1-piperidinyl)-3′,4′-dimethoxybutyrophenone N-oxide [Example 271] | – | – | −17 mmHg | −13 mmHg
COCC(=O)Oc1cccc(C=CCN2CCC(=C3c4ccccc4C=Cc4ccccc43)CC2)c1.Cl [Example 369, 4-(5H-Dibenzo[a,d]cyclohepten-5-ylidene)-1-(3-(2-methoxyacetoxy)cinnamyl)piperidine hydrochloride] | – | – | −101 mmHg | −83 mmHg
4-(4-(5H-Dibenzo[a,d]cyclohepten-5-ylidene)-1-piperidinyl)-4′-trimethoxybutyrophenone hydrochloride [Example 172] | – | – | −115 mmHg | −25 mmHg
